According to patent publication US9334286B2, “Pharmacologically active compounds” (Cancer Research Technology Limited, priority 2012, dated 2016):

Molecular target: full length MPS1 (Homo sapiens (Human), UniProt P33981)
Experiment: Measurement of inhibition of MPS1 kinase (Caliper EZ reader, fluorescent labelled peptide H236)
Type: biochemical
Conditions: full length MPS1 12.5 nM or 3 nM, peptide H236 5 μM, ATP 10 μM, 60 min at room temperature

Chain of full length MPS1 (P33981 whole entry): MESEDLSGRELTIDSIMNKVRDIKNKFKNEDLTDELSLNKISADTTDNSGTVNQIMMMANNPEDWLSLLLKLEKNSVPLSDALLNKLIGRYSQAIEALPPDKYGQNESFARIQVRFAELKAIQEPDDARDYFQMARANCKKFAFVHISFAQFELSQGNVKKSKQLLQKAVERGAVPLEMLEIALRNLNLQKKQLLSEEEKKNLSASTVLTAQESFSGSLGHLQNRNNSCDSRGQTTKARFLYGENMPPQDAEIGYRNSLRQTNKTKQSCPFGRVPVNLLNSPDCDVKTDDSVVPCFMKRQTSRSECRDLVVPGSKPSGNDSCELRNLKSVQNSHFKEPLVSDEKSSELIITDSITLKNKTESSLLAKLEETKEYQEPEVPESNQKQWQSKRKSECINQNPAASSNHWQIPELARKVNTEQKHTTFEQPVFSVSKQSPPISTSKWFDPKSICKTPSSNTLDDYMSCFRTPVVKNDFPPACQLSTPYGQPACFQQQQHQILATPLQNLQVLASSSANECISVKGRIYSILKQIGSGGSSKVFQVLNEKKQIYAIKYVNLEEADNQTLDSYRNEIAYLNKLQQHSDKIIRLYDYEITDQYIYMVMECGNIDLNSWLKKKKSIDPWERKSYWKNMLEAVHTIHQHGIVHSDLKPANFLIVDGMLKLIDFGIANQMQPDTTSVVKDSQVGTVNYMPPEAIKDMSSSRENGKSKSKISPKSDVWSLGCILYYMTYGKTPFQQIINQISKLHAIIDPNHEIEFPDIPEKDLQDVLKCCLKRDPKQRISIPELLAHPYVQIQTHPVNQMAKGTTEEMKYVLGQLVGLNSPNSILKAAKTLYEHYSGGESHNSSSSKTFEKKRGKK

Compound	IC50	IC50 (unit printed as (M))
COc1cc(-c2cnc3n2CCNC3)ccc1Nc1cc2cc(-c3cnn(CC(C)(C)O)c3)ccc2cn1 [Example 111, 1-(4-(3-((2-Methoxy-4-(5,6,7,8-tetrahydroimidazo[1,2-a]pyrazin-3-yl)phenyl)amino)-isoquinolin-6-yl)-1H-pyrazol-1-yl)-2-methylpropan-2-ol]	3e-09 M	–
COc1cc(-c2nnc3n2CCNC3)ccc1Nc1cc2cc(-c3cnn(CC(C)(C)O)c3)ccc2cn1 [Example 112, 1-(4-(3-(2-Methoxy-4-(5,6,7,8-tetrahydro-[1,2,4]triazolo[4,3-a]pyrazin-3-yl)phenylamino)-isoquinolin-6-yl)-1H-pyrazol-1-yl)-2-methylpropan-2-ol]	2e-09 M	–
COc1cc(-c2cnc(C)n2C)ccc1Nc1cc2cc(-c3cnn(C4CCNCC4)c3)ccc2cn1 [Example 113, N-(4-(1,2-dimethyl-1H-imidazol-5-yl)-2-methoxyphenyl)-6-(1-(piperidin-4-yl)-1H-pyrazol-4-yl)isoquinolin-3-amine]	4e-09 M	–
COc1cc(-c2cnc(C)n2C)ccc1Nc1ncc2ccc(-c3cnn(C)c3)nc2n1 [Example 115, N-(4-(1,2-dimethyl-1H-imidazol-5-yl)-2-methoxyphenyl)-7-(1-methyl-1H-pyrazol-4-yl)pyrido[2,3-d]pyrimidin-2-amine]	–	1.6e-08 M
